Patent publication US10286022B2, “Medicinal composition of extract of seed of emblica officinalis and method of preparing the same” (priority 2013, dated 2019)

Test system: Triton WR 1339 induced dyslipidemia in Albino rats (Sprague Dawley strain)
Assay: Hypolipidemic activity in different doses, Triton WR 1339 induced dyslipidemia model (Example 19)
Format: in vivo, rat
Description: Sixty male Albino rats (Sprague Dawley strain) weighing approximate 250-300 gm were selected for the study. The animals were kept in the animal house maintained at temp 24±2° C., 65% relative humidity and 12 hr light/dark cycle. The rats were acclimatized for two weeks and during this period they had access to standard pellet diet and water ad libitum. After two weeks of acclimatization, all the rats were fasted overnight before injecting Triton WR 1339 (Tyloxapol) and administration of test extracts/standard. The animals were divided into ten groups. Following treatment was given to overnight fasted rats: • Group I: Normal control (vehicle only). • Group II: Triton WR 1339 (300 mg/kg, intraperitoneal). • Group III: Triton WR 1339 (300 mg/kg, intraperitoneal) followed by amla seed extract prepare as per example 1 (10 mg/kg, per oral). • Group IV: Triton WR 1339 (300 mg/kg, intraperitoneal) followed by amla seed extract prepare as per example 1 (7.5 mg/kg, per oral). • Group V: Triton WR 1339 (300 mg/kg, intraperitoneal) followed by amla seed extract prepare as per example 1 (5 mg/kg, per oral). • Group VI: Triton WR 1339 (300 mg/kg, intraperitoneal) followed by amla seed extract prepare as per example 1 (2.5 mg/kg, per oral). • Group VII: Triton WR 1339 (300 mg/kg, intraperitoneal) followed by amla seed extract prepare as per example 1 (2 mg/kg, per oral). • Group VIII: Triton WR 1339 (300 mg/kg, intraperitoneal) followed by amla seed extract prepare as per example 1 (1 mg/kg, per oral). • Group IX: Triton WR 1339 (300 mg/kg, intraperitoneal) followed by amla seed extract prepare as per example 1 (0.5 mg/kg, per oral). • Group X: Triton WR 1339 (300 mg/kg, intraperitoneal) followed by atorvastatin (10 mg/kg. per oral).
The animals were deprived of food for next 24 hours but had free access to water ad libitum. After 24 hour of drug treatment 2 ml blood samples were collected from the retro orbital plexus. The blood was allowed to clot and then centrifuged at 3000 rpm for 10 min and the serum was carefully drawn and collected into separate tubes. The serum was analyzed for total cholesterol, triglycerides, high density lipoproteins (HDL), low density lipoproteins (LDL) and very low density lipoproteins (VLDL) levels using auto-analyzer.

[1] = 24 h after Triton i.p. + 10 mg/kg p.o.

Structure (SMILES): CC(C)c1c(C(=O)Nc2ccccc2)c(-c2ccccc2)c(-c2ccc(F)cc2)n1CC[C@@H](O)C[C@@H](O)CC(=O)O [Atorvastatin]
- HDL After [1]: 39.83 mg/dL
- LDL After [1]: 60.23 mg/dL
- TC After [1]: 120.83 mg/dL
- TG After [1]: 103.86 mg/dL
- VLDL After [1]: 20.77 mg/dL
- effect on cholesterol and triglyceride level (amla seed extract 0.5 to 10 mg/kg p.o., atorvastatin 10 mg/kg p.o.): effective in lowering the cholesterol as well as triglyceride level
- HDL Before (baseline, 10 mg/kg p.o. group): 31.66 mg/dL
- LDL Before (baseline, 10 mg/kg p.o. group): 47.75 mg/dL
- TC Before (baseline, 10 mg/kg p.o. group): 87.43 mg/dL
- TG Before (baseline, 10 mg/kg p.o. group): 39.9 mg/dL
- VLDL Before (baseline, 10 mg/kg p.o. group): 7.98 mg/dL
